Experimental data as given in US7060694B2, “High potency dihydroergotamine compositions” (Pozen Inc., priority 1999, dated 2006).

Tests used:
[1] = format: in vivo, human; conditions: after either treatment (MT 300 sc or DHE 45 im), LLOQ 50 pg/ml
Method: The study described above in Example 2 utilizes an incomplete crossover design. This protocol is amended to provide a direct comparison of the tolerance and pharmacokinetics of a 2 mg/ml (2.9 mM) formulation of MT 300 (Formulation A-2) and DHE 45®. The present experiment is a randomized, open-label, two period, […], crossover study comparing subcutaneous administration of 1.2 mg of MT 300 and intramuscular administration of 1 mg of DHE 45®. Plasma dihydroergotamine and the 8-hydroxydihydroergotamine metabolite are measured with an LC/MS/MS method, with a LLOQ of 50 pg/ml for both DHE and 8-OH DHE. Serial blood samples are collected for 72 hours after the dose. Seven of 8 subjects complete this study. One subject withdraws from the study due to difficulty in obtaining the blood samples. The adverse event profile is similar to that observed in the study of Example 2.

[2] = Solubility of DHE in aqueous formulations with caffeine
[3] = Example 4: overall tolerance profile (adverse events) of subjects administered DHE; format: in vivo, human; conditions: DHE concentration increased from 1.5 mM to 2.9 mM or more, total quantity of DHE constant
Source text: Adverse events occur in 20 of 33 subjects treated with MT 300 and 8 of 13 subjects treated with DHE 45®.

[4] = Animal studies of DHE absorption with caffeine; format: in vivo; conditions: caffeine at 10:1 weight ratio relative to DHE
[5] = DHE given subcutaneously at 1.5 mM; cited from earlier work

Compound	plasma levels of 8-OH DHE metabolite [1]	solubility of DHE in aqueous formulations [2]	side effects, particularly nausea [3]	drug absorption characteristics [4]	nausea in treated patients [5]
8-hydroxydihydroergotamine [8-OH DHE]	No significant levels				
CN1C[C@H](C(=O)N[C@]2(C)O[C@@]3(O)[C@@H]4CCCN4C(=O)[C@H](Cc4ccccc4)N3C2=O)C[C@@H]2c3cccc4[nH]cc(c34)C[C@H]21 [DHE, Dihydroergotamine]		greatly increases the solubility	reduced	improves drug absorption characteristics	~16%
